Experimental data: US11685747B2, “Compounds that inhibit MCL-1 protein” (AMGEN INC., priority 2014, dated 2023)

Key:
recombinant human Mcl-1 = biological target: T1, recombinant human Mcl-1 (Homo sapiens, UniProt Q07820); assay: Cell free Mcl-1:Bim affinity assay (Mcl-1 HTRF, TR-FRET); assay type: binding; details: inhibition of Mcl-1/Bim interaction
T1 construct: C-terminally 6×His tagged Mcl-1 containing residues 171-327; made in house
Method: Cell Free Mcl-1:Bim Affinity Assay (Mcl-1 HTRF)
The inhibition of the Mcl-1/Bim interaction was measured using a time-resolved fluorescence resonance energy transfer (TR-FRET) assay. […] A biotinylated peptide derived from human Bim (residues 51-76) was purchased from CPC Scientific (San Jose, Calif.). The TR-FRET assay was conducted in a 384-well white OptiPlate™ (PerkinElmer, Waltham, Mass.) in a total volume of 40 μL. […] The reaction plates were further incubated overnight and then were read on an Envision® multimode reader (PerkinElmer). […] The IC50 values of test compounds were determined from duplicate data by analyzing competition curves using a four-parameter sigmoidal model in GraphPad Prism (GraphPad Software, San Diego, Calif.) or in Genedata Screener® (Genedata, Basel, Switzerland).

OPM-2 = assay: Cell viability assay (OPM-2 10 FBS, CellTiter-Glo); assay type: cell-based, human; details: OPM-2 cells
Method: Cell Viability Assay (OPM-2 10 FBS)
Cells were seeded into 384-well plates at 3000 cells/well density in complete growth medium containing 10% FBS, and incubated for 16 h with serially diluted test compounds in a 37° C. incubator with 5% CO2. Cell viability was tested using CellTiter-Glo® assay (Promega, Madison, Wis.) according to the manufacturer recommendations. Luminescence was determined using an EnVision® Multilabel plate reader 25 min after the addition of detection reagent. IC50 values were then calculated with Xlfit using a logistical 4-parameter fit model in GraphPad Prism (GraphPad Software, San Diego, Calif.) or in Genedata Screener® (Genedata, Basel, Switzerland).

[1] = biological target: T2, Mcl-1/Bak protein-protein interactions (Homo sapiens, UniProt Q07820); assay: Cell-based split luciferase complementation assay; details: HEK 293 M cells, serum-free, 4 h
T2 construct: expressed in transfected cells; host or cells: HEK 293 M cells, transient transfection
Method: Cell-Based Assay (Split Luciferase)
A split luciferase complementation assay was developed to determine the inhibition of Mcl-1/Bak protein-protein interactions in cells. […] Transient transfection was performed using Lipofectamine® LTX/Plus™ reagent (Life Technologies, Grand Island, N.Y.). 24 h after transfection, cells were collected using non-enzyme based cell dissociation buffer StemPro® Accutase® (Life Technologies), and resuspended in serum-free Opti-MEM® (Life Technologies). Cells were then seeded into assay plates with serially diluted test compounds in 0.3% DMSO at density of a 5000 cells/well. Cells were then incubated for 4 h at 37° C. in a cell culture incubator supplement with 5% CO2. Test plates were equilibrated to room temperate for 30 min before addition of 30 μL Steady-Glo® Luciferase assay reagent (Promega, Madison, Wis.) into each test well. Luminescence was determined using an EnVision® Multilabel plate reader 25 min after the addition of detection reagent. IC50 values were then calculated with Xlfit using a logistical 4-parameter fit model in GraphPad Prism (GraphPad Software, San Diego, Calif.) or in Genedata Screener® (Genedata, Basel, Switzerland).

T1 sequence (Q07820 171-327): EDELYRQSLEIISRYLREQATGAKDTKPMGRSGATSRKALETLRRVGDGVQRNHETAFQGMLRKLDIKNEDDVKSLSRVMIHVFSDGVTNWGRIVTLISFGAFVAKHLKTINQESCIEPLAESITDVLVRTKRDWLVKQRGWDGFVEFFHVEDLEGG
T2 sequence (Q07820 whole entry): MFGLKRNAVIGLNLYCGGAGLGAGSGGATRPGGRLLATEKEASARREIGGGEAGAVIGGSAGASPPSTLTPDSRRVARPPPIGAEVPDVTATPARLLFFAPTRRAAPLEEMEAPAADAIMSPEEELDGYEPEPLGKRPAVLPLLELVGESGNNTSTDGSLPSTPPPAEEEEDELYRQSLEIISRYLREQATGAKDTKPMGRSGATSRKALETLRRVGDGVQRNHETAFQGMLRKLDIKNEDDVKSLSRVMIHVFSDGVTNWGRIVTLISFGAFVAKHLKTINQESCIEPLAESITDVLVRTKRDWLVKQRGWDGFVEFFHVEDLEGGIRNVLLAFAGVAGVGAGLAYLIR

SMILES | IC50 (recombinant human Mcl-1) [nM] | IC50 [1] [nM] | IC50 (OPM-2; Homo sapiens, OPM-2, 16 h) [nM] | IC50 (OPM-2; Homo sapiens, 16 h) [nM] | IC50 (OPM-2; 16 h) [nM]
O=C1NS(=O)(=O)CCC/C=C/[C@H](O)[C@@H]2CC[C@H]2CN2C[C@@]3(CCCc4cc(Cl)ccc43)COc3ccc1cc32 [Example 8, (1S,3′R,6′R,7′S,8′E)-6-Chloro-7′-Hydroxy-3,4-Dihydro-2H,15′H-Spiro[Naphthalene-1,22′-[20]Oxa[13]Thia[1,14]Diazatetracyclo[14.7.2.0^3,6.0^19,24]Pentacos A[8,16,18,24]Tetraen]-15′-One 13′,13′-Dioxide] | 0.977 | 211 | – | 1680 | –
CO[C@H]1/C=C/C[C@H](C)CS(=O)(=O)NC(=O)c2ccc3c(c2)N(C[C@@H]2CC[C@H]21)C[C@@]1(CCCc2cc(Cl)ccc21)CO3 (single isomer, unassigned) [Example 31] | 5.8 | 543 | – | – | 3560
C[C@H]1C/C=C/[C@H](O)[C@@H]2CC[C@H]2CN2C[C@@]3(CCCc4cc(Cl)ccc43)COc3ccc(cc32)C(=O)NS(=O)(=O)C1 (single isomer, unassigned) [Example 29] | 9.44 | 458 | – | – | 5580
CC[C@@H]1CC/C=C/[C@H](OCCOC)[C@@H]2CC[C@H]2CN2C[C@@]3(CCCc4cc(Cl)ccc43)COc3ccc(cc32)C(=O)NS1(=O)=O [Example 75, (1S,3′R,6′R,7′S,8′E,12′R)-6-Chloro-12′-Ethyl-7′-(2-Methoxyethoxy)-3,4-Dihydro-2H,15′H-Spiro[Naphthalene-1,22′-[20]Oxa[13]Thia[1,14]Diazatetracyclo[14.7.2.0^3,6.0^19,24]Pentacosa[8,16,18,24]Tetraen]-15′-One 13′,13′-Dioxide] | 2.83 | 159 | 2560 | – | –
CC(C)[C@@H]1[C@H](C)C/C=C/[C@H](O)[C@@H]2CC[C@H]2CN2C[C@@]3(CCCc4cc(Cl)ccc43)COc3ccc(cc32)C(=O)NS1(=O)=O (single isomer, unassigned) [Example 51] | 24.3 | 792 | – | – | 14400
CC[C@@H]1CCCC[C@H](OC)[C@@H]2CC[C@H]2CN2C[C@@]3(CCCc4cc(Cl)ccc43)COc3ccc(cc32)C(=O)NS1(=O)=O [Example 21, (1S,3′R,6′R,7′S,12′R)-6-Chloro-12′-Ethyl-7′-Methoxy-3,4-Dihydro-2H,15′H-Spiro[Naphthalene-1,22′-[20]Oxa[13]Thia[1,14]Diazatetracyclo[14.7.2.0^3,6.0^19,24]Pentacos A[16,18,24]Trien]-15′-One 13′,13′-Dioxide] | 2.78 | 192 | 4170 | – | –
CO[C@H]1/C=C/C[C@H](C)[C@@H](C2CC2)S(=O)(=O)NC(=O)c2ccc3c(c2)N(C[C@@H]2CC[C@H]21)C[C@@]1(CCCc2cc(Cl)ccc21)CO3 [Example 48, (1S,3′R,6′R,7′S,8′E,11′S,12′S)-6-Chloro-12′-Cyclopropyl-7′-Methoxy-11′-Methyl-3,4-Dihydro-2H,15′H-Spiro [Naphthalene-1,22′-[20]Oxa[13]Thia[1,14]Diazatetracyclo[14.7.2.0^3,6.0^19,24]Pentacosa[8,16,18,24]Tetraen]-15′-One 13′,13′-Dioxide] | 3.89 | 477 | 5580 | – | –
C[C@H]1C/C=C/[C@H](O)[C@@H]2CC[C@H]2CN2C[C@@]3(CCCc4cc(Cl)ccc43)COc3ccc(cc32)C(=O)NS(=O)(=O)[C@@H]1C1CCC1 (single isomer, unassigned) [Example 55] | 15.2 | 863 | – | – | 8690
COCCO[C@H]1/C=C/C[C@@H](C)CS(=O)(=O)NC(=O)c2ccc3c(c2)N(C[C@@H]2CC[C@H]21)C[C@@]1(CCCc2cc(Cl)ccc21)CO3 (single isomer, unassigned) [Example 77] | 6.12 | 260 | – | – | 3160
CC1(C)CC/C=C\[C@H](O)[C@@H]2CC[C@H]2CN2C[C@@]3(CCCc4cc(Cl)ccc43)COc3ccc(cc32)C(=O)NS1(=O)=O (single isomer, unassigned) [Example 41] | 4.42 | 128 | 4750 | – | –

Continued by falling IC50 (recombinant human Mcl-1), values first:

IC50 (recombinant human Mcl-1) [nM] | IC50 [1] [nM] | SMILES | IC50 (OPM-2; Homo sapiens, OPM-2, 16 h) [nM] | IC50 (OPM-2; Homo sapiens, 16 h) [nM] | IC50 (OPM-2; 16 h) [nM]
2.15 | 375 | C[C@H]1C/C=C/[C@H](O)[C@@H]2CC[C@H]2CN2C[C@@]3(CCCc4cc(Cl)ccc43)COc3ccc(cc32)C(=O)NS(=O)(=O)[C@@H]1C1CCC1 (single isomer, unassigned) [Example 57] | – | – | 2400
1.39 | 51.4 | CO[C@H]1/C=C/C[C@@H](C)[C@@H](C(C)C)S(=O)(=O)NC(=O)c2ccc3c(c2)N(C[C@@H]2CC[C@H]21)C[C@@]1(CCCc2cc(Cl)ccc21)CO3 [Example 53, (1S,3′R,6′R,7′S,8′E,11′R,12′R)-6-Chloro-7′-Methoxy-11′-Methyl-12′-(1-Methylethyl)-3,4-Dihydro-2H,15′H-Spiro[Naphthalene-1,22′-[20]Oxa[13]Thia[1,14]Diazatetracyclo[14.7.2.0^3,6.0^19,24]Pentacosa[8,16,18,24]Tetraen]-15′-One 13′,13′-Dioxide] | 328 | – | –
1.18 | 147 | CO[C@H]1CCC[C@H](C)[C@@H](C)S(=O)(=O)NC(=O)c2ccc3c(c2)N(C[C@@H]2CC[C@H]21)C[C@@]1(CCCc2cc(Cl)ccc21)CO3 [Example 7, (1S,3′R,6′R,7′S,11′S,12′R)-6-Chloro-7′-Methoxy-11′,12′-Dimethyl-3,4-Dihydro-2H,15′H-Spiro[Naphthalene-1,22′-[20]Oxa[13]Thia[1,14]Diazatetracyclo[14.7.2.0^3,6.0^19,24]Pentacos A[16,18,24]Trien]-15′-One 13′,13′-Dioxide] | 1060 | – | –
0.882 | 140 | CC(C)[C@@H]1[C@H](C)C/C=C/[C@H](O)[C@@H]2CC[C@H]2CN2C[C@@]3(CCCc4cc(Cl)ccc43)COc3ccc(cc32)C(=O)NS1(=O)=O (single isomer, unassigned) [Example 52] | – | – | 1110
0.728 | 78.3 | C[C@H]1C/C=C/[C@H](O)[C@@H]2CC[C@H]2CN2C[C@@]3(CCCc4cc(Cl)ccc43)COc3ccc(cc32)C(=O)NS(=O)(=O)[C@@H]1C1CC1 (single isomer, unassigned) [Example 46] | – | – | 334
0.704 | 117 | CC[C@@H]1CCCC[C@H](O)[C@@H]2CC[C@H]2CN2C[C@@]3(CCCc4ccccc43)COc3ccc(cc32)C(=O)NS1(=O)=O [Example 22, (1S,3′R,6′R,7′S,12′R)-12′-Ethyl-7′-Hydroxy-3,4-Dihydro-2H,15′H-Spiro[Naphthalene-1,22′-[20]Oxa[13]Thia[1,14]Diazatetracyclo[14.7.2.0^3,6.0^19,24]Pentacos A[16,18,24]Trien]-15′-One 13′,13′-Dioxide] | 1250 | – | –
0.492 | 61.5 | C[C@H]1C/C=C/[C@H](O)[C@@H]2CC[C@H]2CN2C[C@@]3(CCCc4cc(Cl)ccc43)COc3ccc(cc32)C(=O)NS(=O)(=O)[C@@H]1CC1CC1 (single isomer, unassigned) [Example 59] | – | – | 247
0.297 | 21.5 | C[C@H]1C/C=C/[C@H](O)[C@@H]2CC[C@H]2CN2C[C@@]3(CCCc4cc(Cl)ccc43)COc3ccc(cc32)C(=O)NS(=O)(=O)[C@@H]1C1CC1 (single isomer, unassigned) [Example 44] | – | – | 208
0.153 | 20.1 | CC[C@@H]1[C@@H](C)C/C=C/[C@H](O)[C@@H]2CC[C@H]2CN2C[C@@]3(CCCc4cc(Cl)ccc43)COc3ccc(cc32)C(=O)NS1(=O)=O (single isomer, unassigned) [Example 24] | 125 | – | –
0.153 | 29.1 | COCCO[C@H]1/C=C/C[C@@H](C)[C@@H](C(C)C)S(=O)(=O)NC(=O)c2ccc3c(c2)N(C[C@@H]2CC[C@H]21)C[C@@]1(CCCc2cc(Cl)ccc21)CO3 [Example 54, (1S,3′R,6′R,7′S,8′E,11′R,12′R)-6-Chloro-7′-(2-Methoxyethoxy)-11′-Methyl-12′-(1-Methylethyl)-3,4-Dihydro-2H,15′H-Spiro[Naphthalene-1,22′-[20]Oxa[13]Thia[1,14]Diazatetracyclo[14.7.2.0^3,6.0^19,24]Pentacosa[8,16,18,24]Tetraen]-15′-One 13′,13′-Dioxide] | 131 | – | –
